Measured values reported in patent US6706663B2, “Herbicidal 3-heterocyclic substituted benzisothiazole and benzisoxazole compounds” (Wyeth, priority 2000, dated 2004).

What was measured:
[1] = tested on: MOOVA (Monochoria vaginalis); experiment: Flooded paddy, preemergence weed control; assay type: in vivo, Presl.; conditions: rated 3-4 weeks after treatment, 0-9 rating scale
How it was run: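 Preemergence, flooded: propagules planted at 0.5 cm depth in silt loam, water level maintained at 1.5 to 3 cm over soil, containers kept on greenhouse benches. Activity scored 0-9 by eye relative to a control plant.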

ORYSAT (Rice, Tebonnet) [2] = experiment: Flooded paddy, post-transplant rice tolerance; assay type: in vivo, Oryza sativa, (L.) Tebonnet; conditions: flooded paddy, post-transplant rice, rated 3-4 weeks after treatment, 0-9 rating scale
How it was run: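 Visual 0–9 injury rating against a control, covering stand, vigor, malformation, size, chlorosis and overall appearance. Treatment was post-transplant onto flooded containers (water 1.5–3 cm deep, silt loam) holding two ten-day-old cv. Tebonnet seedlings, maintained on greenhouse benches.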

ORYSAT (Rice, Tebonnet) [3] = experiment: Postemergence herbicidal evaluation; assay type: in vivo, Oryza sativa, (L.) Tebonnet; conditions: for ORYSAT herbicidal rating: postemergence
How it was run: (§1)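 Visual 0–9 injury scores versus control plants, covering stand, vigour, malformation, size, chlorosis and general appearance, taken four to five weeks post-spray and averaged over replicate tests. Plants were sprayed at roughly two weeks old and held on greenhouse benches.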

CYPIR (Cyperus iria) = experiment: Flooded paddy, postemergence weed control; assay type: in vivo; conditions: postemergence weeds, rated 3-4 weeks after treatment
Text: Results of herbicide evaluation are expressed on a rating scale (0-9). The scale is based upon a visual observation of plant stand, vigor, malformation, size, chlorosis and overall plant appearance as compared with a control.
Plastic containers containing weeds which are 3 to 5 cm tall and rice seedlings at the 1.5 to 2.5 leaf stage are flooded with water. The water is maintained at 1.5 to 3 cm above the soil surface for the duration of the experiment. Test compounds are applied as aqueous/acetone mixtures 50/50 v/v directly into the flood water to provide the equivalent of about 0.0320 to 0.2500 kg/ha of active ingredient. The treated containers are placed on greenhouse benches and cared for in accordance with conventional greenhouse procedures. Three to four weeks after treatment, the test is terminated and each container is examined and herbicidal effect rated according to the rating system provided in Example 87. The compounds evaluated are identified in Example 87 and plant species used are identified in Example 89.

[4] = tested on: SAGPY (Sagittaria pygmaea); experiment: Flooded paddy, postemergence weed control; assay type: in vivo, L.; conditions: postemergence weeds, rated 3-4 weeks after treatment
How it was run: (§2)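 Weeds 3 to 5 cm tall plus rice seedlings at the 1.5 to 2.5 leaf stage were flooded, water held 1.5 to 3 cm above soil. Compounds in 50/50 v/v aqueous/acetone went directly into flood water at about 0.0320 to 0.2500 kg/ha. Greenhouse, 3 to 4 weeks; visual 0-9 rating versus control.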

[5] = tested on: TRZAWR (Wheat, Winter, cv Riband); experiment: Postemergence herbicidal evaluation; assay type: in vivo, Triticum aestivum; conditions: for TRZAWR herbicidal rating: postemergence
How it was run: as §1

SETVI (Setaria viridis) [6] = experiment: Postemergence herbicidal evaluation; assay type: in vivo, (L.) Beau; conditions: for SETVI herbicidal rating: postemergence
How it was run: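 Visual injury score (0-9: stand, vigor, malformation, size, chlorosis, overall appearance vs untreated control) taken four to five weeks post-spray. Two-week-old seedlings received about 0.0040 to 1.000 kg/ha active compound in acetone/water with 0.5% TWEEN 20.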

ORYSAT (Rice, Tebonnet) [7] = experiment: Flooded paddy, post-transplant and postemergence rice tolerance; assay type: in vivo, Oryza sativa, (L.) Tebonnet; conditions: post-transplant rice, rated 3-4 weeks after treatment
How it was run: as §2

[8] = tested on: CYPSE (Cyperus serotinus); experiment: Flooded paddy, postemergence weed control; assay type: in vivo, Rottb.; conditions: postemergence weeds, rated 3-4 weeks after treatment
How it was run: as §2

[9] = tested on: MOOVA (Monochoria vaginalis); experiment: Flooded paddy, postemergence weed control; assay type: in vivo, Presl.; conditions: postemergence weeds, rated 3-4 weeks after treatment
How it was run: as §2

SETVI (Setaria viridis) [10] = experiment: Preemergence herbicidal evaluation; assay type: in vivo, (L.) Beau; conditions: rated 4-5 weeks after treatment
How it was run: (§3)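 Visual 0-9 rating versus untreated control, taken four to five weeks post-treatment, scoring stand, vigor, malformation, size, chlorosis and overall appearance. Compound applied as aqueous acetone spray to freshly seeded soil cups, then kept under standard greenhouse care.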

[11] = tested on: ECHCG (Echinochloa crus-galli); experiment: Preemergence herbicidal evaluation; assay type: in vivo, (L.) Beau; conditions: rated 4-5 weeks after treatment
How it was run: as §3

[12] = tested on: ABUTH (Abutilon theophrasti); experiment: Preemergence herbicidal evaluation; assay type: in vivo, Medic.; conditions: rated 4-5 weeks after treatment
[13] = tested on: ECHORC (Echinochloa oryzoides); experiment: Flooded paddy, postemergence weed control; assay type: in vivo, Echinochloa oryzoides (Ard.) Fritsch.; conditions: postemergence weeds, rated 3-4 weeks after treatment
How it was run: as §2

Cn1c(C(F)(F)F)cc(=O)n(-c2ccc3snc(-c4nccs4)c3c2)c1=O [Compound 53, 1-methyl-3-[3-(2-thiazolyl)-1,2-benzisothiazol-5-yl]-6-(trifluoromethyl)uracil]
herbicidal rating, MOOVA ([1]; rate 0.0080 kg/ha): 9.0 | herbicidal rating, MOOVA ([1]; rate 0.0320 kg/ha): 9.0 | herbicidal rating, MOOVA ([1]; rate 0.1250 kg/ha): 9.0 | herbicidal rating, ORYSAT (rice tolerance) (ORYSAT (Rice, Tebonnet) [2]; rate 0.0080 kg/ha): 0.5 | herbicidal rating, ORYSAT (rice tolerance) (ORYSAT (Rice, Tebonnet) [2]; rate 0.0320 kg/ha): 2.7 | herbicidal rating, ORYSAT (rice tolerance) (ORYSAT (Rice, Tebonnet) [2]; rate 0.1250 kg/ha): 5.0 | ORYSAT herbicidal rating (ORYSAT (Rice, Tebonnet) [3]; rate 0.0320 kg/ha): 3.0 | ORYSAT herbicidal rating (ORYSAT (Rice, Tebonnet) [3]; rate 0.0620 kg/ha): 3.5 | ORYSAT herbicidal rating (ORYSAT (Rice, Tebonnet) [3]; rate 0.1250 kg/ha): 3.0 | herbicide rating (0-9) CYPIR (CYPIR (Cyperus iria); 0.0320 kg/ha into flood water): 0.0 | herbicide rating (0-9) CYPIR (CYPIR (Cyperus iria); 0.1250 kg/ha into flood water): 7.0 | herbicide rating (0-9) SAGPY ([4]; 0.0320 kg/ha into flood water): 0.0 | herbicide rating (0-9) SAGPY ([4]; 0.0620 kg/ha into flood water): 0.0 | herbicide rating (0-9) SAGPY ([4]; 0.1250 kg/ha into flood water): 0.0 | TRZAWR herbicidal rating ([5]; rate 0.0320 kg/ha): 3.3 | TRZAWR herbicidal rating ([5]; rate 0.0620 kg/ha): 4.0 | TRZAWR herbicidal rating ([5]; rate 0.1250 kg/ha): 4.0 | SETVI herbicidal rating (SETVI (Setaria viridis) [6]; rate 0.0320 kg/ha): 2.5 | SETVI herbicidal rating (SETVI (Setaria viridis) [6]; rate 0.0620 kg/ha): 5.5 | SETVI herbicidal rating (SETVI (Setaria viridis) [6]; rate 0.1250 kg/ha): 9.0 | herbicide rating (0-9) ORYSAT (rice tolerance) (ORYSAT (Rice, Tebonnet) [7]; 0.0320 kg/ha into flood water): 2.0 | herbicide rating (0-9) ORYSAT (rice tolerance) (ORYSAT (Rice, Tebonnet) [7]; 0.0620 kg/ha into flood water): 4.0 | herbicide rating (0-9) ORYSAT (rice tolerance) (ORYSAT (Rice, Tebonnet) [7]; 0.1250 kg/ha into flood water): 6.0 | herbicide rating (0-9) CYPSE ([8]; 0.0320 kg/ha into flood water): 0.0 | herbicide rating (0-9) CYPSE ([8]; 0.0620 kg/ha into flood water): 8.0 | herbicide rating (0-9) CYPSE ([8]; 0.1250 kg/ha into flood water): 8.0 | herbicide rating (0-9) MOOVA ([9]; 0.0320 kg/ha into flood water): 0.0 | herbicide rating (0-9) MOOVA ([9]; 0.0620 kg/ha into flood water): 0.0 | herbicide rating (0-9) MOOVA ([9]; 0.1250 kg/ha into flood water): 2.0 | Preemergence herbicidal rating SETVI (SETVI (Setaria viridis) [10]; Rate 0.0620 kg/ha): 9.0 | Preemergence herbicidal rating SETVI (SETVI (Setaria viridis) [10]; Rate 0.1250 kg/ha): 9.0 | Preemergence herbicidal rating SETVI (SETVI (Setaria viridis) [10]; Rate 0.2500 kg/ha): 9.0 | Preemergence herbicidal rating ECHCG ([11]; Rate 0.0620 kg/ha): 2.0 | Preemergence herbicidal rating ECHCG ([11]; Rate 0.1250 kg/ha): 4.5 | Preemergence herbicidal rating ECHCG ([11]; Rate 0.2500 kg/ha): 8.5 | Preemergence herbicidal rating ABUTH ([12]; Rate 0.0620 kg/ha): 5.0 | Preemergence herbicidal rating ABUTH ([12]; Rate 0.1250 kg/ha): 7.5 | Preemergence herbicidal rating ABUTH ([12]; Rate 0.2500 kg/ha): 9.0 | herbicide rating (0-9) ECHORC ([13]; 0.0320 kg/ha into flood water): 2.0 | herbicide rating (0-9) ECHORC ([13]; 0.0620 kg/ha into flood water): 7.0 | herbicide rating (0-9) ECHORC ([13]; 0.1250 kg/ha into flood water): 8.0

COC(=O)COc1ccsc1-c1nsc2ccc(-n3c(=O)cc(C(F)(F)F)n(C)c3=O)cc12 [Compound 22, Methyl [(2-[5-[3,6-dihydro-3-methyl-2,6-dioxo-4-(trifluoromethyl)-1(2H)-pyrimidinyl]-1,2-benzisothiazol-3-yl]-3-thienyl]oxy]acetate]
herbicidal rating, MOOVA ([1]; rate 0.0080 kg/ha): 0.0 | herbicidal rating, MOOVA ([1]; rate 0.0320 kg/ha): 4.5 | herbicidal rating, MOOVA ([1]; rate 0.1250 kg/ha): 4.5 | herbicidal rating, ORYSAT (rice tolerance) (ORYSAT (Rice, Tebonnet) [2]; rate 0.0080 kg/ha): 0.0 | herbicidal rating, ORYSAT (rice tolerance) (ORYSAT (Rice, Tebonnet) [2]; rate 0.0320 kg/ha): 2.0 | herbicidal rating, ORYSAT (rice tolerance) (ORYSAT (Rice, Tebonnet) [2]; rate 0.1250 kg/ha): 2.5 | Postemergence herbicidal rating, ORYSAT (ORYSAT (Rice, Tebonnet) [3]; rate 0.0320 kg/ha): 3.0 | Postemergence herbicidal rating, ORYSAT (ORYSAT (Rice, Tebonnet) [3]; rate 0.0620 kg/ha): 3.5 | Postemergence herbicidal rating, ORYSAT (ORYSAT (Rice, Tebonnet) [3]; rate 0.1250 kg/ha): 4.5 | herbicide rating (0-9) CYPIR (CYPIR (Cyperus iria); 0.0320 kg/ha into flood water): 0.0 | herbicide rating (0-9) CYPIR (CYPIR (Cyperus iria); 0.0620 kg/ha into flood water): 0.0 | herbicide rating (0-9) CYPIR (CYPIR (Cyperus iria); 0.1250 kg/ha into flood water): 0.0 | herbicide rating (0-9) SAGPY ([4]; 0.0320 kg/ha into flood water): 0.0 | herbicide rating (0-9) SAGPY ([4]; 0.0620 kg/ha into flood water): 0.0 | herbicide rating (0-9) SAGPY ([4]; 0.1250 kg/ha into flood water): 0.0 | Postemergence herbicidal rating, TRZAWR ([5]; rate 0.0320 kg/ha): 2.5 | Postemergence herbicidal rating, TRZAWR ([5]; rate 0.0620 kg/ha): 3.5 | Postemergence herbicidal rating, TRZAWR ([5]; rate 0.1250 kg/ha): 4.5 | Postemergence herbicidal rating, SETVI (SETVI (Setaria viridis) [6]; rate 0.0320 kg/ha): 3.0 | Postemergence herbicidal rating, SETVI (SETVI (Setaria viridis) [6]; rate 0.0620 kg/ha): 2.0 | Postemergence herbicidal rating, SETVI (SETVI (Setaria viridis) [6]; rate 0.1250 kg/ha): 9.0 | herbicide rating (0-9) ORYSAT (rice tolerance) (ORYSAT (Rice, Tebonnet) [7]; 0.0320 kg/ha into flood water): 0.0 | herbicide rating (0-9) ORYSAT (rice tolerance) (ORYSAT (Rice, Tebonnet) [7]; 0.0620 kg/ha into flood water): 0.0 | herbicide rating (0-9) ORYSAT (rice tolerance) (ORYSAT (Rice, Tebonnet) [7]; 0.1250 kg/ha into flood water): 0.0 | herbicide rating (0-9) CYPSE ([8]; 0.0320 kg/ha into flood water): 0.0 | herbicide rating (0-9) CYPSE ([8]; 0.0620 kg/ha into flood water): 0.0 | herbicide rating (0-9) CYPSE ([8]; 0.1250 kg/ha into flood water): 0.0 | herbicide rating (0-9) MOOVA ([9]; 0.0320 kg/ha into flood water): 0.0 | herbicide rating (0-9) MOOVA ([9]; 0.0620 kg/ha into flood water): 0.0 | herbicide rating (0-9) MOOVA ([9]; 0.1250 kg/ha into flood water): 0.0 | SETVI preemergence herbicidal rating (SETVI (Setaria viridis) [10]; Rate 0.0620 kg/ha): 0.0 | SETVI preemergence herbicidal rating (SETVI (Setaria viridis) [10]; Rate 0.1250 kg/ha): 1.0 | SETVI preemergence herbicidal rating (SETVI (Setaria viridis) [10]; Rate 0.2500 kg/ha): 3.0 | ECHCG preemergence herbicidal rating ([11]; Rate 0.0620 kg/ha): 0.0 | ECHCG preemergence herbicidal rating ([11]; Rate 0.1250 kg/ha): 0.0 | ECHCG preemergence herbicidal rating ([11]; Rate 0.2500 kg/ha): 1.0 | ABUTH preemergence herbicidal rating ([12]; Rate 0.0620 kg/ha): 1.0 | ABUTH preemergence herbicidal rating ([12]; Rate 0.1250 kg/ha): 4.0 | ABUTH preemergence herbicidal rating ([12]; Rate 0.2500 kg/ha): 5.0 | herbicide rating (0-9) ECHORC ([13]; 0.0320 kg/ha into flood water): 0.0 | herbicide rating (0-9) ECHORC ([13]; 0.0620 kg/ha into flood water): 0.0 | herbicide rating (0-9) ECHORC ([13]; 0.1250 kg/ha into flood water): 0.0
